This passage reports IC50 and JAK2/JAK1 results from patent publication US10370387B2, “Tricyclic fused thiophene derivatives as JAK inhibitors” (Incyte Corporation, priority 2012, dated 2019).

What is called IC50 is the point on the concentration scale where inhibition reaches its midpoint. A higher IC50 goes with weaker potency in that assay.

Bounds are passed on as bounds.

Type in all cases: biochemical
The target in one test is human JAK2 (Homo sapiens (Human), UniProt O60674). As to the kind of experiment: In vitro JAK kinase assay (HTRF, phosphorylation of biotinylated peptide), JAK2. Particulars: 1 mM ATP. As for the experimental part: Compounds herein were tested for inhibitory activity of JAK targets according to the following in vitro assay described in Park et al., Analytical Biochemistry 1999, 269, 94-104. The catalytic domains of human JAK1 (a.a. 837-1142), JAK2 (a.a. 828-1132) and JAK3 (a.a. 781-1124) were expressed using baculovirus in insect cells and purified. The catalytic activity of JAK1, JAK2 or JAK3 was assayed by measuring the phosphorylation of a biotinylated peptide. The phosphorylated peptide was detected by homogenous time resolved fluorescence (HTRF). IC50s of compounds were measured for each kinase in the 40 μL reactions that contain the enzyme, ATP and 500 nM peptide in 50 mM Tris (pH 7.8) buffer with 100 mM NaCl, 5 mM DTT, and 0.1 mg/mL (0.01%) BSA. For the 1 mM IC50 measurements, ATP concentration in the reactions was 1 mM. Reactions were carried out at room temperature for 1 hour and then stopped with 20 μL 45 mM EDTA, 300 nM SA-APC, 6 nM Eu-Py20 in assay buffer (Perkin Elmer, Boston, Mass.). Binding to the Europium labeled antibody took place for 40 minutes and HTRF signal was measured on a PHERA star plate reader (BMG, Cary, N.C.). The Example compounds were each tested in the Example A assay (see Table 1 for data for the compounds of the examples as tested by the assay of Example A at 1 mM ATP).
For orientation: Time-resolved FRET reads energy transfer from a long-lived donor to a nearby acceptor.

Test [1] deals with human JAK1. Briefly: In vitro JAK kinase assay (HTRF, phosphorylation of biotinylated peptide), JAK1. The following applies: ratio of JAK2 IC50 to JAK1 IC50, 1 mM ATP. In a few lines:
(§1)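 Baculovirus-expressed catalytic domains (JAK1 a.a. 837-1142, JAK2 a.a. 828-1132) phosphorylate 500 nM biotinylated peptide at 1 mM ATP, Tris pH 7.8, 1 h at room temperature. EDTA stop and HTRF detection with Eu-Py20/SA-APC; IC50 values derived.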

The target in test [2] is human JAK1 (Homo sapiens, UniProt P23458). The test is described as above. The following applies: 1 mM ATP. In a few lines: as §1

Sequence of human JAK2 (O60674 828-1132): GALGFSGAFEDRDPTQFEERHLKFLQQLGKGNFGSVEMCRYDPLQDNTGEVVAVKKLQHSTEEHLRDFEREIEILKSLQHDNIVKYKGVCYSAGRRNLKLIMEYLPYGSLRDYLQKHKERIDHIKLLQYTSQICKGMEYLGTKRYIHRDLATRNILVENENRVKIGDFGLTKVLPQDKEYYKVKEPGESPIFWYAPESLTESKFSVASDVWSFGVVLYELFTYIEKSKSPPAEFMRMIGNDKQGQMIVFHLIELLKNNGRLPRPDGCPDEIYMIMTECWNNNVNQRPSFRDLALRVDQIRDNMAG

Turning to `Cc1nn2cnc3ccsc3c2c1-c1ccc(CC#N)cc1` [Example 46, [4-(8-Methylpyrazolo[1,5-c]thieno[2,3-e]pyrimidin-9-yl)phenyl]acetonitrile], the IC50 against human JAK2 was at most 1000 nM; against human JAK1 [2] it was at most 100 nM. The JAK2/JAK1 with human JAK1 [1] is on record as above 3.

With “((1R,2R,4S)-2-Hydroxy-4-{2-[(1R)-1-hydroxyethyl]-1H-imidazo[4,5-d]thieno[3,2-b]pyridin-1-yl}cyclohexyl)acetonitrile and ((1S,2S,4R)-2-hydroxy-4-{2-[(1R)-1-hydroxyethyl]-1H-imidazo[4,5-d]thieno[3,2-b]pyridin-1-yl}cyclohexyl)acetonitrile [36 (second peak)]”, in the test on human JAK1 [1], the JAK2/JAK1 is on record as above 10.

For the compound “((1R,2S,4S)-2-Hydroxy-4-{2-[(1R)-1-hydroxyethyl]-1H-imidazo[4,5-d]thieno[3,2-b]pyridin-1-yl}cyclohexyl)acetonitrile trifluoacetate and ((1S,2R,4R)-2-hydroxy-4-{2-[(1R)-1-hydroxyethyl]-1H-imidazo[4,5-d]thieno[3,2-b]pyridin-1-yl}cyclohexyl)acetonitrile trifluoacetate [37 (first peak)]”, the JAK2/JAK1 with human JAK1 [1] is given as above 10.

With “((1R,2S,4S)-2-Hydroxy-4-{2-[(1R)-1-hydroxyethyl]-1H-imidazo[4,5-d]thieno[3,2-b]pyridin-1-yl}cyclohexyl)acetonitrile trifluoacetate and ((1S,2R,4R)-2-hydroxy-4-{2-[(1R)-1-hydroxyethyl]-1H-imidazo[4,5-d]thieno[3,2-b]pyridin-1-yl}cyclohexyl)acetonitrile trifluoacetate [37 (second peak)]”, the JAK2/JAK1 in the test with human JAK1 [1] was above 10.

On to “[(1R,2S,4S)-4-(2-Ethyl-1H-imidazo[4,5-d]thieno[3,2-b]pyridin-1-yl)-2-hydroxycyclohexyl]acetonitrile and [(1S,2R,4R)-4-(2-ethyl-1H-imidazo[4,5-d]thieno[3,2-b]pyridin-1-yl)-2-hydroxycyclohexyl]acetonitrile [40 (first peak)]”, for which the JAK2/JAK1 in the test with human JAK1 [1] was above 10.

Take “[(1R,2S,4S)-4-(2-Methyl-1H-imidazo[4,5-d]thieno[3,2-b]pyridin-1-yl)-2-hydroxycyclohexyl]acetonitrile and [(1S,2R,4R)-4-(2-methyl-1H-imidazo[4,5-d]thieno[3,2-b]pyridin-1-yl)-2-hydroxycyclohexyl]acetonitrile [41 (first peak)]”: the JAK2/JAK1 in the test with human JAK1 [1] was above 10.
